Source: patent US20120058989A1, “ANTIBACTERIAL FLUOROQUINOLONE ANALOGS” (Achaogen, Inc., priority 2008, published 2012)

Assays:
Assay in all cases: MIC, CLSI broth microdilution
Assay type in all cases: cell-based
[1] = test system: E. coli AECO001 (Fluoroquinolone susceptible, ATCC25922); conditions: Table 2, 35° C., 20 hours
Experimental: (§1) Minimum inhibitory concentrations (MIC) were determined by reference Clinical and Laboratory Standards Institute (CLSI) broth microdilution methods per M7-A7 [2006]. Quality control ranges utilizing E. coli ATCC 25922, P. aeruginosa ATCC 27853 and S. aureus ATCC 29213, and interpretive criteria for comparator agents were as published in CLSI M100-S17 [2007]. Briefly, serial two-fold dilutions of the test compounds were prepared at 2× concentration in Mueller Hinton Broth. The compound dilutions were mixed in 96-well assay plates in a 1:1 ratio with bacterial inoculum. The inoculum was prepared by suspension of a colony from an agar plate that was prepared the previous day. Bacteria were suspended in sterile saline and added to each assay plate to obtain a final concentration of 5×10^5 CFU/mL. The plates were incubated at 35° C. for 20 hours in ambient air.

[2] = test system: P. aeruginosa APAE054 (Fluoroquinolone-resistant); conditions: Table 2
Experimental: as §1

[3] = test system: A. baumannii AABA1065 (Fluoroquinolone-susceptible); conditions: Table 2
Experimental: as §1

[4] = test system: S. pneumoniae ASPN1027 (Fluoroquinolone-resistant); conditions: Table 2
Experimental: as §1

[5] = test system: S. pneumoniae ASPN001 (Fluoroquinolone-susceptible, ATCC49619); conditions: Table 2
Experimental: as §1

[6] = test system: A. baumannii AABA1009 (Fluoroquinolone-resistant); conditions: Table 2
Experimental: as §1

[7] = test system: P. aeruginosa APAE001 (Fluoroquinolone-susceptible, ATCC27853); conditions: Table 2
Experimental: as §1

[8] = test system: E. coli AECO066 (Fluoroquinolone-resistant); conditions: Table 2
Experimental: as §1

[9] = test system: S. aureus ASAU1031 (Fluoroquinolone-resistant); conditions: Table 2
Experimental: as §1

[10] = test system: S. aureus ASAU001 (Fluoroquinolone-susceptible, ATCC29213); conditions: Table 2
Experimental: as §1

SMILES	MIC AECO 001 [1]	MIC APAE 054 [2]	MIC AABA 1065 [3]	MIC ASPN 1027 [4]	MIC ASPN 001 [5]	MIC AABA 1009 [6]	MIC APAE 001 [7]	MIC AECO 066 [8]	MIC ASAU 1031 [9]	MIC ASAU 001 [10]
O=C(O)c1cn(C2CC2)c2c3c(c(F)cc2c1=O)N1C[C@H](O)C[C@H]1CC=C3 [18/6, (7aR,9R)-4-Cyclopropyl-12-fluoro-9-hydroxy-1-oxo-4,7,7a,8,9,10-hexahydro-1H-pyrrolo[1′,2′:1,7]azepino-[2,3-h]quinoline-2-carboxylic acid]	A (MIC's of 1.0 μg/mL or less = A)	C (MIC's of greater than 8.0 μg/mL = C)	B (MIC's of greater than 1.0 μg/mL to 8.0 μg/mL = B)	C (MIC's of greater than 8.0 μg/mL = C)	A (MIC's of 1.0 μg/mL or less = A)	C (MIC's of greater than 8.0 μg/mL = C)	C (MIC's of greater than 8.0 μg/mL = C)	C (MIC's of greater than 8.0 μg/mL = C)	B (MIC's of greater than 1.0 μg/mL to 8.0 μg/mL = B)	A (MIC's of 1.0 μg/mL or less = A)
O=C(O)c1cn(C2CC2)c2c3c(c(F)cc2c1=O)N1C[C@H](O)C[C@H]1CCC3 [18/8, (7aR,9R)-4-Cyclopropyl-12-fluoro-9-hydroxy-1-oxo-4,5,6,7,7a,8,9,10-octahydro-1H-pyrrolo-[1′,2′:1,7]aze-pino[2,3-h]quinoline-2-carboxylic acid]	A (MIC's of 1.0 μg/mL or less = A)	C (MIC's of greater than 8.0 μg/mL = C)	B (MIC's of greater than 1.0 μg/mL to 8.0 μg/mL = B)	C (MIC's of greater than 8.0 μg/mL = C)	A (MIC's of 1.0 μg/mL or less = A)	C (MIC's of greater than 8.0 μg/mL = C)	C (MIC's of greater than 8.0 μg/mL = C)	C (MIC's of greater than 8.0 μg/mL = C)	B (MIC's of greater than 1.0 μg/mL to 8.0 μg/mL = B)	A (MIC's of 1.0 μg/mL or less = A)
O=C1C[C@H]2CC=Cc3c(c(F)cc4c(=O)c(C(=O)O)cn(C5CC5)c34)N2C1 [18/10, (7aR)-4-Cyclopropyl-12-fluoro-1,9-dioxo-4,7,7a,8,9,10-hexahydro-1H-pyrrolo[1′,2′:1,7]azepino[2,3-h]quino-line-2-carboxylic acid]	B (MIC's of greater than 1.0 μg/mL to 8.0 μg/mL = B)	C (MIC's of greater than 8.0 μg/mL = C)	C (MIC's of greater than 8.0 μg/mL = C)	C (MIC's of greater than 8.0 μg/mL = C)	B (MIC's of greater than 1.0 μg/mL to 8.0 μg/mL = B)	C (MIC's of greater than 8.0 μg/mL = C)	C (MIC's of greater than 8.0 μg/mL = C)	C (MIC's of greater than 8.0 μg/mL = C)	C (MIC's of greater than 8.0 μg/mL = C)	A (MIC's of 1.0 μg/mL or less = A)
O=C(O)c1cn(C2CC2)c2c3c(c(F)cc2c1=O)N1CC(=NO)C[C@H]1CC=C3 [18/11, (7aR,9E)-4-Cyclopropyl-12-fluoro-9-(hydroxyimino)-1-oxo-4,7,7a,8,9,10-hexahydro-1H-pyrrolo[1′,2′:1,7]aze-pino[2,3-h]quinoline-2-carboxylic acid]	A (MIC's of 1.0 μg/mL or less = A)	C (MIC's of greater than 8.0 μg/mL = C)	A (MIC's of 1.0 μg/mL or less = A)	A (MIC's of 1.0 μg/mL or less = A)	A (MIC's of 1.0 μg/mL or less = A)	C (MIC's of greater than 8.0 μg/mL = C)	B (MIC's of greater than 1.0 μg/mL to 8.0 μg/mL = B)	C (MIC's of greater than 8.0 μg/mL = C)	A (MIC's of 1.0 μg/mL or less = A)	A (MIC's of 1.0 μg/mL or less = A)
O=C(O)c1cn(C2CC2)c2c3c(c(F)cc2c1=O)N1CC[C@H](O)[C@H]1CC=C3 [19/5, (7aR,8S)-4-Cyclopropyl-12-fluoro-8-hydroxy-1-oxo-4,7,7a,8,9,10-hexahydro-1H-pyrrolo[1′,2′:1,7]azepino[2,3-h]quinoline-2-carboxylic acid]	B (MIC's of greater than 1.0 μg/mL to 8.0 μg/mL = B)	C (MIC's of greater than 8.0 μg/mL = C)	B (MIC's of greater than 1.0 μg/mL to 8.0 μg/mL = B)	C (MIC's of greater than 8.0 μg/mL = C)	B (MIC's of greater than 1.0 μg/mL to 8.0 μg/mL = B)	C (MIC's of greater than 8.0 μg/mL = C)	C (MIC's of greater than 8.0 μg/mL = C)	C (MIC's of greater than 8.0 μg/mL = C)	C (MIC's of greater than 8.0 μg/mL = C)	A (MIC's of 1.0 μg/mL or less = A)
NC[C@H]1C[C@@H]2CC=Cc3c(c(F)cc4c(=O)c(C(=O)O)cn(C5CC5)c34)N2C1.O=C(O)C(F)(F)F [20/14, (7aS,9R)-9-(Aminomethyl)-4-cyclopropyl-12-fluoro-1-oxo-4,7,7a,8,9,10-hexahydro-1H-pyrrolo[1′,2′:1,7]azepino[2,3-h]quinoline-2-carboxylic acid trifluoroacetate]	A (MIC's of 1.0 μg/mL or less = A)	C (MIC's of greater than 8.0 μg/mL = C)	A (MIC's of 1.0 μg/mL or less = A)	C (MIC's of greater than 8.0 μg/mL = C)	A (MIC's of 1.0 μg/mL or less = A)	C (MIC's of greater than 8.0 μg/mL = C)	B (MIC's of greater than 1.0 μg/mL to 8.0 μg/mL = B)	C (MIC's of greater than 8.0 μg/mL = C)	C (MIC's of greater than 8.0 μg/mL = C)	A (MIC's of 1.0 μg/mL or less = A)
NC[C@H]1C[C@@H]2CCCc3c(c(F)cc4c(=O)c(C(=O)O)cn(C5CC5)c34)N2C1.O=C(O)C(F)(F)F [20/16, (7aS,9R)-9-(Aminomethyl)-4-cyclopropyl-12-fluoro-1-oxo-4,5,6,7,7a,8,9,10-octahydro-1H-pyrrolo[1′,2′:1,7]-azepino[2,3-h]quinoline-2-carboxylic acid trifluoroacetate]	A (MIC's of 1.0 μg/mL or less = A)	C (MIC's of greater than 8.0 μg/mL = C)	A (MIC's of 1.0 μg/mL or less = A)	C (MIC's of greater than 8.0 μg/mL = C)	A (MIC's of 1.0 μg/mL or less = A)	C (MIC's of greater than 8.0 μg/mL = C)	B (MIC's of greater than 1.0 μg/mL to 8.0 μg/mL = B)	C (MIC's of greater than 8.0 μg/mL = C)	C (MIC's of greater than 8.0 μg/mL = C)	A (MIC's of 1.0 μg/mL or less = A)
O=C(O)c1cn(C2CC2)c2c3c(c(F)cc2c1=O)N1C(=O)CC[C@H]1COC3 [21/9, (3aS)-13-Cyclopropyl-8-fluoro-6,10-dioxo-3a,4,5,6,10,13-hexahydro-1H,3H-pyrrolo[2′,1′:3,4]oxazepino-[5,6-h]quinoline-11-carboxylic acid]	B (MIC's of greater than 1.0 μg/mL to 8.0 μg/mL = B)	C (MIC's of greater than 8.0 μg/mL = C)	C (MIC's of greater than 8.0 μg/mL = C)	C (MIC's of greater than 8.0 μg/mL = C)	C (MIC's of greater than 8.0 μg/mL = C)	C (MIC's of greater than 8.0 μg/mL = C)	C (MIC's of greater than 8.0 μg/mL = C)	C (MIC's of greater than 8.0 μg/mL = C)	C (MIC's of greater than 8.0 μg/mL = C)	B (MIC's of greater than 1.0 μg/mL to 8.0 μg/mL = B)
NC[C@@H]1CC2CC=Cc3c(c(F)cc4c(=O)c(C(=O)O)cn(C5CC5)c34)N2C1.O=C(O)C(F)(F)F (stereo partly drawn) [22/17, (9S)-9-(Aminomethyl)-4-cyclopropyl-12-fluoro-1-oxo-4,7,7a,8,9,10-hexahydro-1H-pyrrolo-[1′,2′:1,7]azepino[2,3-h]quinoline-2-carboxylic acid trifluoroacetate]	B (MIC's of greater than 1.0 μg/mL to 8.0 μg/mL = B)	C (MIC's of greater than 8.0 μg/mL = C)	B (MIC's of greater than 1.0 μg/mL to 8.0 μg/mL = B)	C (MIC's of greater than 8.0 μg/mL = C)	B (MIC's of greater than 1.0 μg/mL to 8.0 μg/mL = B)	C (MIC's of greater than 8.0 μg/mL = C)	B (MIC's of greater than 1.0 μg/mL to 8.0 μg/mL = B)	C (MIC's of greater than 8.0 μg/mL = C)	C (MIC's of greater than 8.0 μg/mL = C)	A (MIC's of 1.0 μg/mL or less = A)
